Source: patent US20080200557A1, “Method for Inhibiting Lipid Peroxidation” (CARITAS ST. ELIZABETH HOSPITAL OF BOSTON, INC., priority 2004, published 2008)

Key:
[1] = test system: lipid peroxidation induced by lipopolysaccharide (LPS) in rat brain tissues; test: LPS-induced lipid peroxidation (TBARS/MDA) in rat brain homogenates; format: biochemical, Fisher 344N male rats; conditions: rat brain homogenate, LPS 400 μg/ml
Experimental: N-acetyldopamine, melatonin, 2-thiobarbituric acid, and LPS (Escherichia coli 0127:B8) were purchased from Sigma Chemical Co. (St. Louis, Mo.). The formation of thiobarbituric acid reactive substances (TBARS) was used as index of induced oxidative damage to lipid membranes. Lipid peroxidation was induced with LPS (400 μg/ml).
Brain tissues from Fisher 344N male rats were homogenized in 20 mM pH 7.4 Tris buffer. The homogenates were then incubated (1 hr) in solvent alone (control) or in solvent+LPS (400 μg/ml), N-acetyldopamine+LPS, NAS+LPS, melatonin+LPS, and N-acetyldopamine+NAS+LPS (for concentrations of N-acetyldopamine, NAS and melatonin, see Results). TBARS were added, and homogenates were incubated for 20 min. in a boiling water bath. After cooling, the absorbance was measured spectrophotometrically at 532 nm. TBARS concentrations were derived from a standard curve of MDA (Oxis International, Portland, Oreg.). Protein was determined by Lowry method (Sigma Chem. Co., St. Louis, Mo.). Results are expressed as mean+S.D. (n=6). Data was treated by one-way ANOVA and Student's t-test.

toxic effect of LPS = conditions: laboratory animals; cited from earlier work
septic shock = conditions: patients suffering from septic shock; cited from earlier work
[2] = test system: lipid peroxidation induced by FeCl2 in mice brain tissues; test: FeCl2-induced lipid peroxidation (TBARS/MDA) in mouse brain tissues; format: biochemical, mice C57BI/J6; conditions: FeCl2 1 mM
Experimental: The effect of N-substituted dopamine derivatives on FeCl2-induced oxidative damage was evaluated in mice C57BI/J6 brain tissues.
Brain tissues from C57BI/J6 […] were homogenized in 20 mM pH 7.4 Tris buffer. The homogenates were then incubated (1 hr) in solvent alone (control) or in solvent+FeCl2, N-acetyldopamine+FeCl2, N-methyldopamine (deoxyepinephrine)+FeCl2, 3-methoxyldopamine+FeCl2, and 4-methoxydopamine (3-hydroxy-4-methoxy phenethylamine HCl)+FeCl2. TBARS were added, and homogenates were incubated for 20 min. in a boiling water bath. After cooling, the absorbance was measured spectrophotometrically at 532 nm. TBARS concentrations were derived from a standard curve of MDA (Oxis International, Portland, Oreg.). Protein was determined by Lowry method (Sigma Chem. Co., St. Louis, Mo.). Results are expressed as mean +S.D. (n=6). Data was treated by one-way ANOVA and Student's t-test

[3] = test system: lipid peroxidation induced by lipopolysaccharide (LPS) in mice brain tissues; test: LPS-induced lipid peroxidation (TBARS/MDA) in mouse brain tissues; format: biochemical; conditions: C57BI/6J mouse brain
[4] = test system: LPS-induced hypotensive shock; conditions: rats; cited from earlier work
LPS lethal effect = conditions: mice; cited from earlier work

In the case of `CC(=O)NCCc1ccc(O)c(O)c1` [N-acetyldopamine], the “concentration from which inhibition of LPS-induced formation of MDA starts” value ([1]; 1 hr incubation, FIG. 1) was 50 µM, the “concentration reaching complete inhibition of LPS-induced formation of MDA” value ([1]; 1 hr incubation, FIG. 1) was 200 µM and the “effect on LPS-induced lipid peroxidation (MDA formation), in words” value ([1]; FIGS. 1-2) was “inhibited LPS-induced formation of MDA in a dose-dependent manner”.

For `COc1ccc2[nH]cc(CCNC(C)=O)c2c1` [Melatonin, melatonin], the “effect on toxic effect of LPS” value (toxic effect of LPS) is listed as “counteract the toxic effect of LPS”, the “concentration reaching statistically significant inhibition of LPS-induced lipid peroxidation” value ([1]; FIG. 3) is listed as 800 µM and the effect on lethality (septic shock) is listed as “prevent lethality”.

For `CNCCc1ccc(O)c(O)c1` [N-methyldopamine, N-methyldopamine (deoxyepinephrine)], the “concentration from which inhibition of FeCl2-induced formation of MDA starts” value ([2]; FIG. 10) was 25 µM, the “concentration reaching complete inhibition of FeCl2-induced formation of MDA” value ([2]; FIG. 10) was 200 µM and the “effect on FeCl2-induced formation of MDA, in words” value ([2]; FIGS. 8-12) was “most prominent effect”.

In the case of `COc1cc(CCN)ccc1O` [3-methoxydopamine, 4-hydroxyl-3-methoxy phenethylamine], the “effect on LPS-induced lipid peroxidation (MDA formation), in words” value ([3]; FIGS. 6-7) was “inhibited LPS-induced formation of MDA in C57BI/6J mouse brain in a dose-dependent manner” and the “inhibition of LPS-induced formation of MDA” value ([3]; at 200μ, FIG. 6) was 50%.

In the case of `CC(=O)NCCc1c[nH]c2ccc(O)cc12` [NAS, N-acetylserotonin], the “protection against LPS-induced hypotensive shock” value [4] is listed as “protects rats against LPS-induced hypotensive shock” and the “protection against LPS lethal effect” value (LPS lethal effect) is listed as “protects”.
